Test system: rat mixed glial culture
Assay: Activity of promoting neuronal neogenesis in rat mixed glial culture
Type: cell-based
Settings: compound 1 μM + rhIGF-1 100 ng/ml, three days; anti-class III beta-tubulin, absorbance at 450 nm; control (rhIGF-1 only) = 100%
Method: From a three-day old SD rat, hippocampus and cerebral cortex were removed. By using a kit of dispersion liquid for neuronal cells (MB-X9901, manufactured by SUMITOMO BAKELITE CO., LTD.), cell suspension was prepared and then seeded on a 96-well plate coated with collagen Type I (4860-010, manufactured by Asahi Techno Glass Co., Ltd.) to 10^5 cells/well. Under the condition of 37° C. and 5% CO2, the cells were cultured for four days in a growth medium (D-MEM/F12 with 10% FBS, comprising PS).
After culturing, the medium was exchanged with a medium for differentiation (D-MEM/F12, comprising PS), added with rhIGF-1 (R&D Systems, 291-G1-250, final concentration of 100 ng/ml) and the compound to 1 μM, followed by further culture for three days. […] By using the plate reader (Labsystems Multiskan BICHROMATIC), absorbance at 450 nm was measured.
The absorbance for the case in which no compound is added (i.e., control, rhIGF-1 only) was 100%, and the increase ratio of the absorbance for the compound addition (i.e., compound+rhIGF-1) compared to the control was obtained as % control. Activity of the each compound for promoting neuronal differentiation that is measured according to the above method is summarized in Table 9 and Table 10.

COc1ccc(N2CCN(c3c(C)c(C)c4c(c3C)CC(C)(CO)O4)CC2)cc1 (single isomer, unassigned; (+)) [Example 144, (+)-{5-[4-(4-methoxyphenyl)piperazin-1-yl]-2,4,6,7-tetramethyl-2,3-dihydro-1-benzofuran-2-yl}methanol]
Increase Ratio of the Absorbance (% control): >500 % control
